Reference: PubChem BioAssay (NCI)
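48-hour exposure; five concentrations; linearly interpolated endpoints. GI50 is the concentration that inhibits growth by half. Definition used: TGI = concentration required for complete inhibition of growth.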 Where a SMILES comes first, the peptide text is derived from it. [ ]: non-standard residue; d: D form. 2Nal = N[CH](Cc1ccc2ccccc2c1)C(=O)O

Legend:
Experiment in all cases: NCI tumour cell line growth inhibition, 48 h
[1] = system: DLD-1 colon
[2] = system: HOP-18 NSCLC
[3] = system: LXFL 529 NSCLC
[4] = system: KM20L2 colon
[5] = system: XF 498 CNS
[6] = system: MDA-N
[7] = system: P388 leukemia
[8] = system: P388/ADR leukemia
[9] = system: RXF-631 renal
[10] = system: SN12K1 renal

SMILES	TGI [1] [µM]	TGI [2] [µM]	TGI [3] [µM]	TGI [4] [µM]	TGI [5] [µM]	TGI [6]	TGI [7] [µM]	TGI [8] [µM]	TGI [9] [µM]	TGI [10] [µM]	GI50 [6] [µg/mL]
Oc1cccc(C2SCc3nc4ccccc4n32)c1 (stereo not given)	> 100	> 100	> 100								
Fc1cccc(F)c1C1SCc2nc3ccccc3n21 (stereo not given)	> 100	> 100	> 100	> 100	> 100						
CC1=COC2=C(C)C(=O)C(=O)c3c(C)ccc1c32						3.26 µM					
CNC(=O)OCc1nc(S(C)=O)n(C)c1COC(=O)NC (stereo not given)	> 100	> 100	> 51.8	> 100	> 100		> 100	> 100	> 100	> 100	
C=C(CO)CC(O)c1ccccc1 (stereo not given)	> 100		> 100	> 100	> 100				> 100		
NC1=C(c2nc(-c3cc4ccccc4oc3=O)cs2)C(c2ccco2)c2c(c3ccccc3oc2=O)O1 (stereo not given)						> 150 µg/mL					> 150
CSc1s[s+]c(SC)c1[O-]	33.6	> 100	38.7	> 100	> 100				41.8		
COc1ccc(/C=N/NC(=O)O)cc1						> 100 µM					
CC(NC(=O)C(N)Cc1ccccc1)C(=O)NC(Cc1ccc(O)cc1)C(=O)NC(Cc1c[nH]c2ccccc12)C(=O)NC(CCCCN)C(=O)NC(C(=O)NC(C)C(=O)NC(Cc1ccc2ccccc2c1)C(N)=O)C(C)C (stereo not given) (H-FAYWKVA[2Nal]-NH2; configuration not given here)	> 100	46.3		78	54.9						
Cc1ccccc1NC(=O)C(=O)Cc1nc2ccccc2s1	> 100	> 100	> 100		> 100				> 100		
O=C1OC(c2ccc([N+](=O)[O-])cc2)=N/C1=C\c1ccc(O)cc1						> 100 µM					
CCCCCN(CCCCC)C(=O)[C@@H](CCC(=O)OCc1ccccc1)NC(=O)c1cc2ccccc2[nH]1	> 100	> 100	> 100	> 100					> 100		
CN(C)CC1(C)CC/C(=C\c2ccc3c(c2)OCO3)C1=O (stereo not given)	> 100	> 100	> 100	> 100	> 100						
N/C(=N\C(=S)N1CCCCC1)N1CCCCC1	> 100	> 100	> 100	> 100	> 100						
C=C1CC2(OC1=O)c1ccccc1CCc1ccccc12	3.4	4.61	3.07	14.5	3.88	3.34 µM					
COc1ccc(OC)c(CCc2cc(OC)c(OC)cc2C)c1	> 100		> 100	> 100	> 100						
Cc1ccc(NC(=O)SCCC(=O)O)cc1NC(=O)SCCC(=O)O	> 10		> 100	> 100							
O=C1OC(=O)C2C3CCC(O3)C12 (stereo not given)	> 100	> 100	> 100		> 100						
CC1=CC(C)C(O)C(C)/C=C/C(O)C/C=C(/C)C(=O)CC(O)C(C)\C=C/C=C/C=C\C(=O)NC2=C(O)c3cc(C)c(O)c(c3C(=O)C2=O)C1=O (stereo not given)						> 100 µM					
NC(C(=O)O)C(N)C(=O)O (stereo not given)						> 100 µM					
CN/N=C(\C)CC(=O)Nc1cccc(Cl)c1C	> 100	> 100	> 100	> 100	> 100				> 100		
COC(=O)C(C(=O)C(=O)Nc1ccccc1OC)c1csc(-n2nc(-c3ccccc3)cc2-c2ccccc2)n1 (stereo not given)	> 100	> 100	> 100	> 100	> 100				> 100		

SMILES	TGI [1] [µM]	TGI [2] [µM]	TGI [3] [µM]	TGI [4] [µM]	TGI [5] [µM]	TGI [6]	TGI [7] [µM]	TGI [8] [µM]	TGI [9] [µM]	TGI [10] [µM]	GI50 [6] [µg/mL]
COC1OC(C)C(OC(=O)C(C)(C)C)C(C)(O)C1O (stereo not given)	> 100	> 100	> 100	> 100	> 100						
CC1CC2C3CC(F)C4=CC(=O)C=CC4(C)C3(F)C(O)CC2(C)C1(O)C(=O)CO (stereo not given)	> 100			> 100	> 100				> 100		
COc1ccc(-c2c(N)[n+]([O-])c3cc(C)c(C)cc3[n+]2[O-])cc1OC	> 100	> 100	> 100	> 100	> 100				38.8		
O=C=Nc1ccc(Cc2ccc(N=C=O)cc2)cc1 (tested in a mixture with another compound)						> 25 µg/mL					> 25
O=C1C=C(Br)C(=O)C(Br)=C1	> 100	> 100	> 100	> 100	> 100				> 100		
O=C(O)C1Cc2nc[nH]c2CN1 (stereo not given)	> 100	> 100	> 100	> 100					> 100		
CC(=O)N1c2ccccc2C23CCN4CC5=CCOC(O)C(C5CC42)C13 (stereo not given)						> 100 µM					
COc1cc2c(cc1OC)-c1c(cc(OC)c(OC)c1OC)C2=O	> 100	> 100	> 100	> 100					> 100		
O=C1/C(=C\c2ccccc2)c2ccccc2N1Cc1ccccc1						13.4 µM					
c1ccc(-c2cc(-c3cc(-c4ccccn4)[nH]n3)n[nH]2)nc1						> 100 µM					
CC(C)OCN1COCN=C1NC#N	57.6	> 100	> 100	> 100					> 100		
O=C1CCC(=O)c2cc(Br)ccc2N1	> 100	> 100	> 100	> 100	> 100				> 100		
O=C(Nc1cc(C(F)(F)F)ccc1Cl)C(=O)C(C(=O)c1ccc2ccccc2c1)C1OC(=O)c2ccccc21 (stereo not given)	36.3		20.5	39.1							
N#Cc1c(NC(=O)CCC(=O)O)ccc2ccccc12						> 100 µM					
C=CC1=C(C)C2=NC1=CC1=NC(=C(CC)/C1=C/O)C=C1C=C3C(=O)C(C(=O)OC)C(=C4NC(=C2)C(C)C4CCC(=O)OC/C=C(\C)CCCC(C)CCCC(C)CCCC(C)C)C3=N1 (stereo not given) (tested in a mixture with another compound)						> 100 µM					
COc1ccc(C(=O)C(C(=O)C(=O)Nc2nc3ccc(OC)cc3s2)c2ccc(OC)cc2)cc1 (stereo not given)	> 100	> 100	> 100	> 100	> 100				> 100		
CC(NC1CCC[C@H]1O)c1ccccc1 (mixture of isomers)		> 100		> 100	> 100						
C=C(C)C1CC[C@]2(C(=O)O)CCC3(C)[C@H](CCC4[C@@]5(C)CC[C@H](OC6OC(CO)C(O)C6OC6OC(C)C(O)C(O)C6O)[C@@](C)(CO)C5CC[C@]43C)C12 (stereo not given in full)	> 100		> 100	> 100	> 100				> 100		
COC(=O)C1CCc2c(OC)ccc(OC)c2C1=O (stereo not given)	> 100	> 100	> 100	> 100							
COc1cc(C2C(C(=O)O)=C(C)Oc3cc4c(cc32)OCO4)cc(OC)c1OC (stereo not given)	> 100	> 100		> 100	95.9				> 100		
CC(=O)Nc1ccc(/C=c2\sc3nnc(/C=C/c4ccccc4)n3c2=O)cc1	> 50	> 50	> 50	> 50	> 50				> 50		
COCCN1C2=CCCCC2=Nc2c(N)nc(N)nc21	> 100	> 100	> 100	> 100	> 100				> 100		
